Results published in patent publication US20200054657A1, “Compositions of Matter and Methoods to Treat Cancer” (priority 2018, published 2020).
“Also recorded” adds a separate entry of the source.

Experiments:
[1] = LD50 in mice
[2] = mice; cited from earlier work
[3] = molecular target: PAK-1 kinase (Homo sapiens, UniProt Q13153); conditions: in vitro; cited from earlier work
[4] = pharmacokinetics study by oral route, LC/MS/MS detection in the blood; assay type: in vivo, humans
Protocol: In a pharmacokinetics and pharmacodynamics study of Frondoside A by oral route in humans, as are known to those skilled in the arts, dosage of 10 milligrams of Frondoside A is delivered in an enteric coated gelatin capsule, as are known to those skilled in the arts and is detected by LC/MS/MS in the blood up to 20 hours later. In a pharmacokinetics and pharmacodynamics study in a huma of Frondoside A by oral route in humans, a dosage of 10 milligrams of Frondoside A in a capsule without the benefit of enteric coated capsule delivery, is not detected by LC/MS/MS in the blood up to 20 hours later.

[5] = lack of change in CBC, liver function tests, body weight; cited from earlier work
[6] = tested on: HT29 human colonic cancer cells; assay: viability of HT29 colonic cancer cells; conditions: HT29 (FIG. 7); for enhancing effect of Andrographolide on the response: in the presence of Andrographolide; for reduction in viability: single agents
[7] = tested on: AsPC-1 human pancreatic cancer cells; assay: viability of AsPC-1 pancreatic cancer cells; assay type: cell-based; conditions: for enhancing effect of Andrographolide on the response: in the presence of Andrographolide; for enhancing effect of Andrographolide on the response / reduction in viability: AsPC-1 (FIG. 6); for comparison of effects on cell viability / reduction in viability: single agents; for comparison of effects on cell viability: AsPC-1 (FIG. 5)
Protocol: Andrographolide at 1 mM and Frondoside A (between 1 mM and 3 mM) were assayed for anticancer effects on the viability of the two human pancreatic cancer cell lines, AsPC-1 and S2013.

[8] = tested on: CCRF-CEM; assay: viability of CCRF-CEM acute leukemia cells; assay type: cell-based; conditions: Homo sapiens, Andrographolide (50 μM) alone, read-out: cell viability
Protocol: (§1) FIG. 3. […] Andrographolide (50 μM) alone reduced cell viability to 54.3±2.8% in CCRF-CEM cells and to 68.5±1.4%. *** =P<0.001.
(§2) Andrographolide (50 μM) and Frondoside A (between 1 and 3 mM) was assayed for anticancer effects through determining cell viability of the two human, acute leukemia cell lines CCRF-CEM and THP-1. […] Andrographolide (50 μM) alone reduced cell viability to 54.3±2.8% in CCRF-CEM cells and to 68.5±1.4%. (FIG. 3)

[9] = tested on: THP-1; assay: viability of THP-1 acute leukemia cells; assay type: cell-based; conditions: Homo sapiens; Andrographolide (50 μM) alone; second cell line not named in the sentence (THP-1)
Protocol: as §1, §2

Chain of PAK-1 kinase (Q13153 whole entry): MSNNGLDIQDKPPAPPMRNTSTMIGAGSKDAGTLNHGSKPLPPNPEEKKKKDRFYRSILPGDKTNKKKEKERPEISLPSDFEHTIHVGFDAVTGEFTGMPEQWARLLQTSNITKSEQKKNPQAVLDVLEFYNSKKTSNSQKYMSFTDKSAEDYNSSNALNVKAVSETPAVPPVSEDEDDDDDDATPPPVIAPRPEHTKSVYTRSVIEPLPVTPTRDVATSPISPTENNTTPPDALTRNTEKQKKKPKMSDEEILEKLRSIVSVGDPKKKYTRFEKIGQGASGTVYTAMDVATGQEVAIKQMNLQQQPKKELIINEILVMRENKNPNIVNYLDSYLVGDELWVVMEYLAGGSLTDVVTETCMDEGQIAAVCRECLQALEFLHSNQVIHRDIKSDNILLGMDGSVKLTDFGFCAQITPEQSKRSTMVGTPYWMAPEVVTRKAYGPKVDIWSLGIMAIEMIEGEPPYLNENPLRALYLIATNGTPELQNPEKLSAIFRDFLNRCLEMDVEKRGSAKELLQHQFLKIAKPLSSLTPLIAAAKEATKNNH

Compound | enhancing effect of Andrographolide on the response [6] | reduction in viability [6] | enhancing effect of Andrographolide on the response [7] | comparison of effects on cell viability [7] | reduction in viability [7] | also measured
CO[C@@H]1[C@@H](O)[C@H](O[C@@H]2[C@@H](O)[C@H](O[C@H]3[C@H](O)[C@@H](O[C@@H]4OC[C@@H](O)[C@H](O)[C@H]4O)[C@H](O[C@H]4[C@H](OC5CC[C@]6(C)[C@H]7CCC89C(=O)O[C@@](C)(CCCC(C)C)C8[C@@H](OC(C)=O)C[C@@]9(C)C7=CC[C@H]6C5(C)C)OC[C@@H](OS(=O)(=O)[O-])[C@@H]4O)O[C@@H]3C)OC[C@H]2O)O[C@H](CO)[C@H]1O.[Na+] (stereo partly drawn) [Frondoside A] |  |  |  |  |  | LD50 relative to the dose used therapeutically [1]: more than 1000 times; LD50 [2]: 9.9 mg/kg; PAK-1 inhibition [3]: inhibitor of PAK-1 kinase; detected by LC/MS/MS in the blood up to 20 hours later ([4]; 10 milligrams in a capsule without enteric coating, human): not detected; detected by LC/MS/MS in the blood ([4]; 10 milligrams in an enteric coated gelatin capsule, humans): up to 20 hours; toxic effects at therapeutic doses [5]: does not have toxic effects at therapeutic doses
CCn1c(=O)c(-c2ccc(-c3cncc(C)n3)cc2Cl)cc2cnc(NCCC3CCN(C)CC3)nc21 [FRAX1036] | no enhancing effect | modest dose responsive reduction in viability | no enhancing effect | less potent anti-cancer compounds | dose responsive reduction in viability | 
CCn1c(=O)c(-c2ccc(-c3cncs3)cc2Cl)cc2cnc(Nc3ccc(N4CCN(C)CC4)cc3)nc21 [FRAX597] | no enhancing effect; also recorded: tendency of the reduced effectiveness | modest dose responsive reduction in viability | no enhancing effect; also recorded: tendency of the reduced effectiveness | less potent anti-cancer compounds | dose responsive reduction in viability | 
C=C1CC[C@@H]2[C@](C)(CO)[C@H](O)CC[C@@]2(C)[C@@H]1C/C=C1/C(=O)OC[C@H]1O [Andrographolide] |  |  |  |  |  | viability at 50 µM [8]: 54.3 ± 2.8%; viability at 50 µM [9]: 68.5 ± 1.4%
